Experimental data reported in paper PMC8041284, “Tunable Methacrylamides for Covalent Ligand Directed Release Chemistry” (Journal of the American Chemical Society, 2021).
Like-named read-outs stand apart in the source and are kept apart here. Where a SMILES comes first, the peptide text is derived from it.

Biological target: BTK (Homo sapiens, UniProt Q06187)
Test: biochemical
[1] = read-out: BTK inhibition (%), 0.75 uM BTK, […] probe 3l, 15 min preincubation

Sequence of BTK (Q06187 402-655 limits assumed): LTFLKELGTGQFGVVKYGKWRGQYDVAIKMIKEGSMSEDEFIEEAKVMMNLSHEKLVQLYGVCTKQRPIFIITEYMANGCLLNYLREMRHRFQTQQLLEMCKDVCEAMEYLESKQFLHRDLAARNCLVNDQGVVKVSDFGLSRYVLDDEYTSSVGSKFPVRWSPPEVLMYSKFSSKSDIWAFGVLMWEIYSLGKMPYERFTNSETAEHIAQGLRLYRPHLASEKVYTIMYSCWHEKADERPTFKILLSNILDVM

Row | SMILES | inhibition at 10 µM [1] | inhibition at 10 µM (read-out: BTK inhibition (%))
1 | NS(=O)(=O)NCCNc1nonc1C(=Nc1ccc(F)c(Br)c1)NO [PCM-0215507] | -3.1% | –
2 | CC1(C)CC[C@]2(C(=O)O[C@@H]3O[C@H](CO[C@@H]4O[C@H](CO)[C@@H](O)[C@H](O)[C@H]4O)[C@@H](O)[C@H](O)[C@H]3O)CC[C@]3(C)C(=CC[C@@H]4[C@@]5(C)CC[C@H](O[C@@H]6OC[C@H](O)[C@H](O)[C@H]6O)[C@@](C)(CO)[C@@H]5CC[C@]43C)[C@@H]2C1 [PCM-0216172] | 13.9% | –
3 | CO/N=C(\C(=O)N[C@@H]1C(=O)N2C(C(=O)[O-])=C(C[n+]3cccc4c3CCC4)CS[C@H]12)c1csc(N)n1 [PCM-0214899] | -4.7% | –
4 | CN(C)CCNC(=O)c1cccn2c(=O)c3cc4ccccc4cc3nc12 [PCM-0215411] | 5.4% | –
5 | COC(=O)[C@H](Cc1ccccc1)NC(=O)[C@@H](N)CC(=O)O [PCM-0214708] (H-Asp-Phe-OMe) | 6.2% | –
6 | C1=C/COCc2cc(ccc2OCCN2CCCC2)Nc2nccc(n2)-c2cccc(c2)COC/1 [PCM-0215268] | 71.7% | –
7 | Cc1ccc(S(=O)(=O)Nc2nc3ccccc3nc2Nc2ccc3nsnc3c2)cc1 [PCM-0094918] | -1.7% | –
8 | CN1CCN(C2=Nc3cc(Cl)ccc3Nc3ccccc32)CC1 [PCM-0064549] | 4.7% | –
9 | COC1=C[C@@]23CCN(C)[C@@H](Cc4ccc(OC)c(O)c42)C3=CC1=O [PCM-0216320] | – | 3.1%
10 | CC1(C)CC[C@]2(C(=O)O[C@@H]3O[C@H](CO)[C@@H](O)[C@H](O)[C@H]3O)CC[C@]3(C)C(=CC[C@@H]4[C@@]5(C)CC[C@H](O[C@@H]6O[C@H](C(=O)O)[C@@H](O)[C@H](O)[C@H]6O)C(C)(C)[C@@H]5CC[C@]43C)[C@@H]2C1 [PCM-0216404] | 3.1% | –
11 | COc1cc(CO)ccc1O [PCM-0215042] | 0% | –
12 | CC1CCc2cc(F)cc3c(=O)c(C(=O)O)cn1c23 (centres unmarked) [PCM-0085858] | -10.1% | –
13 | CC(=O)O[C@@]12CO[C@@H]1C[C@H](O)[C@@]1(C)C(=O)[C@H](O)C3=C(C)[C@@H](OC(=O)[C@H](O)[C@@H](NC(=O)c4ccccc4)c4ccccc4)C[C@@](O)([C@@H](OC(=O)c4ccccc4)[C@H]21)C3(C)C [PCM-0214981] | 9.3% | –
14 | COc1ccc2cc(-c3nc(-c4ccc([S+](C)[O-])cc4)[nH]c3-c3ccncc3)ccc2c1 (centres unmarked) [PCM-0095143] | 33.8% | –
15 | COc1ccc2c(c1)c(CC(=O)OCC(=O)O)c(C)n2C(=O)c1ccc(Cl)cc1 [PCM-0085879] | -19.3% | –
16 | COc1cc(-n2c(=S)[nH]c3ccccc3c2=O)c(Cl)cc1Cl [PCM-0095750] | 29.3% | –
17 | CC(=O)O[C@@H]1C[C@H](O)[C@@]23CO[C@@H](O)[C@]1(C)[C@@H]2C[C@@H](O)[C@]1(C)[C@@H]3C(=O)[C@H](OC(C)=O)[C@@]2(C)[C@H](c3ccoc3)C[C@H]3O[C@]321 [PCM-0216537] | -15.4% | –
18 | COc1ccc(COc2cc3oc(=O)c4cc(C(C)O)ccc4c3cc2OC)cc1 (centres unmarked) [PCM-0095280] | 15.2% | –
19 | CC(C)=CCC[C@@](C)(O)[C@H]1CC[C@]2(C)[C@@H]1[C@H](O)C[C@@H]1[C@@]3(C)CC[C@H](O[C@@H]4O[C@H](CO)[C@@H](O)[C@H](O)[C@H]4O[C@@H]4O[C@H](CO)[C@@H](O)[C@H](O)[C@H]4O)C(C)(C)[C@@H]3CC[C@]12C [PCM-0216609] | 21.6% | –
20 | CCOC(=O)C1=C(C)NC(C)=C(C(=O)OC)C1c1cccc(Cl)c1Cl (centres unmarked) [PCM-0065133] | 17.9% | –
21 | N#Cc1cc2cc(CN3CCC(Nc4ncnc5sc(CC(F)(F)F)cc45)CC3)ccc2[nH]1 [PCM-0215651] | 78% | –
22 | O=c1c2ccccc2oc2ccccc12 [PCM-0091091] | -21% | –
23 | NC(=O)CC[C@@H](N)C(=O)O [PCM-0095186] | 6% | –
24 | Nc1cccc2c1C(=O)N(C1CCC(=O)NC1=O)C2=O (centres unmarked) [PCM-0095126] | 11% | –
25 | CN(Cc1ccc(C(C)(C)C)cc1)Cc1cccc2ccccc12 [PCM-0086068] | 62.3% | –
26 | Clc1ccc(COC(Cn2ccnc2)c2ccc(Cl)cc2Cl)cc1 (centres unmarked) [PCM-0085902] | 7.8% | –
27 | N[C@@H](C(=O)N[C@@H]1C(=O)N2C(C(=O)O)=C(Cl)CS[C@H]12)c1ccccc1 [PCM-0214861] | -13.2% | –

Row | SMILES | inhibition at 10 µM [1] | inhibition at 10 µM (read-out: BTK inhibition (%))
28 | Oc1ccc([C@H]2COc3cc(O)ccc3C2)cc1 [PCM-0095319] | -6.2% | –
29 | COCC(=O)Nc1cc(Sc2ccccc2)ccc1N=C(NC(=O)OC)NC(=O)OC [PCM-0216017] | 11.6% | –
30 | O=C1NC(=O)[C@@H](c2cn3c4c(cccc24)CCC3)[C@@H]1c1c[nH]c2ccccc12 [PCM-0095697] | 29% | –
31 | COc1cc(/C=C/C=O)ccc1O [PCM-0216477] | 1.5% | –
32 | CCCN(CCC)C(=O)C1=Cc2ccc(-c3ccc(C(=O)N4CCCC4)cc3)cc2N=C(N)C1 [PCM-0215564] | -10.3% | –
33 | CCOc1cc(N)c(Cl)cc1C(=O)NCC1CN(Cc2ccc(F)cc2)CCO1 (centres unmarked) [PCM-0095041] | -14% | –
34 | Cc1nc2n(c(=O)c1CCN1CCC(c3noc4cc(F)ccc34)CC1)CCCC2 [PCM-0086311] | 1.7% | –
35 | CCN(CC)CCOCCOC(=O)C1(c2ccccc2)CCCC1 [PCM-0065027] | 4.7% | –
36 | COc1ccc(-c2cc(=O)c3c(O)cc(O[C@@H]4O[C@H](CO)[C@@H](O)[C@H](O)[C@H]4O[C@@H]4O[C@@H](C)[C@H](O)[C@@H](O)[C@H]4O)cc3o2)cc1O [PCM-0216549] | 1.5% | –
37 | CC(C)C1=CC2=CC[C@@H]3[C@](C)(CCC[C@@]3(C)C(=O)O)[C@H]2CC1 [PCM-0215977] | -9.3% | –
38 | COc1cc2c(cc1OC)CC(=O)N(CCCN(C)C[C@H]1Cc3cc(OC)c(OC)cc31)CC2 [PCM-0095255] | -3.1% | –
39 | Cc1[nH]nc(C(F)(F)F)c1Cc1sc2c(c1C(=O)N1C[C@](C)(O)CO1)c(=O)n(C)c(=O)n2C(C)C [PCM-0215606] | 6.9% | –
40 | C=C(Cc1ccccc1Cl)C(=O)OCC [PCM-0215835] | -4.1% | –
41 | CC(C)CCNC(=O)[C@H](CC(C)C)NC(=O)[C@H]1O[C@@H]1C(=O)O [PCM-0215302] | -16.2% | –
42 | CC(=O)Cc1cc(=O)c2c(C)cc(O)c([C@@H]3O[C@H](CO)[C@@H](O)[C@H](O)[C@H]3O)c2o1 [PCM-0216524] | 3.9% | –
43 | O=C(Nc1ccncc1)c1cc([N+](=O)[O-])ccc1Cl [PCM-0064887] | 10.9% | –
44 | CCCCC[C@H](O)/C=C/[C@H]1[C@H](O)CC(=O)[C@@H]1C/C=C\CCCC(=O)O [PCM-0215185] | -11.7% | –
45 | Cc1c[nH]c(/C=C2\C(=O)Nc3ccccc32)c1CCC(=O)O [PCM-0216652] | 83.4% | –
46 | CN(C)CCCNC(=O)c1ccc(-c2cc(O)c3ncccc3c2)cc1 [PCM-0215418] | 19.3% | –
47 | N[C@@H](CC(=O)N1CCn2c(nnc2C(F)(F)F)C1)Cc1cc(F)c(F)cc1F [PCM-0214812] | -1.6% | –
48 | Oc1ccc2c(c1)OCO2 [PCM-0214880] | -3.9% | –
49 | N#CC(=C(N)Sc1ccc(N)cc1)c1ccccc1C(F)(F)F [PCM-0095011] | -28.3% | –
50 | Cc1cccc(C(C)c2cnc[nH]2)c1C (centres unmarked) [PCM-0095548] | -14.8% | –
51 | COC(=O)CC1CC(c2ccc(O)cc2)=NO1 (centres unmarked) [PCM-0216118] | -16.6% | –
52 | Oc1c(F)cc(-c2cnccc2-c2ccc(N3CCOCC3)cc2)cc1F [PCM-0215582] | -12.4% | –
53 | O=c1c(-c2ccc(O)cc2)coc2cc(O)cc(O)c12 [PCM-0065176] | 16.6% | –
